Assay: Oil recovery from oil saturated formation core by brine displacement followed by DMS displacement
Settings: after waterflooding with brine
Protocol: Incremental recovery of oil from a formation core using an oil recovery formulation consisting of dimethyl sulfide following oil recovery from the core by water-flooding was measured to evaluate the effectiveness of DMS as a tertiary oil recovery agent.
Two 5.02 cm long Berea sandstone cores with a core diameter of 3.78 cm and a permeability between 925 and 1325 mD were saturated with a brine having a composition as set forth in Table 7.
After saturation of the cores with brine, the brine was displaced by a Middle Eastern Asphaltic crude oil having the characteristics as set forth above in Table 3 to saturate the cores with oil.
Oil was recovered from each oil saturated core by the addition of brine to the core under pressure and by subsequent addition of DMS to the core under pressure. Each core was treated as follows to determine the amount of oil recovered from the core by addition of brine followed by addition of DMS. Oil was initially displaced from the core by addition of brine to the core under pressure. A confining pressure of 1 MPa was applied to the core during addition of the brine, and the flow rate of brine to the core was set at 0.05 ml/min. The core was maintained at a temperature of 50° C. during displacement of oil from the core with brine. […]

CSC [Dimethyl Sulfide, dimethyl sulfide]
oil recovered, of the oil remaining in the core after the waterflood: approximately 60%
